No end group written: not given here.
T1: human TAS1R2-K689Q/TAS1R3-WT (Homo sapiens, UniProt Q7RTX0+Q8TE23, K689Q)
T1 construct: expressed in transfected cells; host or cells: HEK293T-Gα16gust44
T1 sequence (Q8TE23 20-839 K689Q): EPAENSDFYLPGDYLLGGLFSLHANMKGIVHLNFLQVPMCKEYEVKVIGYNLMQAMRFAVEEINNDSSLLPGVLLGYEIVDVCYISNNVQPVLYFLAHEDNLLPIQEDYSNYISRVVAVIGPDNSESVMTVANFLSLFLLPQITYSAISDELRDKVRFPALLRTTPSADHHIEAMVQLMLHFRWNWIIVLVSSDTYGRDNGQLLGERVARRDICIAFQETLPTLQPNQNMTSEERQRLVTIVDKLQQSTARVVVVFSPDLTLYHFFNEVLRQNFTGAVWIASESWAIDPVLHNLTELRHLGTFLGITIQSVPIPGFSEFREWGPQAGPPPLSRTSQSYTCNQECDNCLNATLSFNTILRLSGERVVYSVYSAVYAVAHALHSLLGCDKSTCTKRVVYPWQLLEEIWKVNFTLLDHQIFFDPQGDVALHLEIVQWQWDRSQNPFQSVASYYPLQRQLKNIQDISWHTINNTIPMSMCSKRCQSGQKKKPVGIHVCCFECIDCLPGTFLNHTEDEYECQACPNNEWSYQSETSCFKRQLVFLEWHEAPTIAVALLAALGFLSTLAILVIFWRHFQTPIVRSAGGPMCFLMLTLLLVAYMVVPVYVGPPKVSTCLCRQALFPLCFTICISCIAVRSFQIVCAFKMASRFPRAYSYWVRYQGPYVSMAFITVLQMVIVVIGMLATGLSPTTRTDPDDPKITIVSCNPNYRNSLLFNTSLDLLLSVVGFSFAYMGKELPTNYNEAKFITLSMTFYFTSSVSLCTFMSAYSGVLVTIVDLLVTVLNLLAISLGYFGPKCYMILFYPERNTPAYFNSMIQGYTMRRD
T1 sequence (Q7RTX0 21-852): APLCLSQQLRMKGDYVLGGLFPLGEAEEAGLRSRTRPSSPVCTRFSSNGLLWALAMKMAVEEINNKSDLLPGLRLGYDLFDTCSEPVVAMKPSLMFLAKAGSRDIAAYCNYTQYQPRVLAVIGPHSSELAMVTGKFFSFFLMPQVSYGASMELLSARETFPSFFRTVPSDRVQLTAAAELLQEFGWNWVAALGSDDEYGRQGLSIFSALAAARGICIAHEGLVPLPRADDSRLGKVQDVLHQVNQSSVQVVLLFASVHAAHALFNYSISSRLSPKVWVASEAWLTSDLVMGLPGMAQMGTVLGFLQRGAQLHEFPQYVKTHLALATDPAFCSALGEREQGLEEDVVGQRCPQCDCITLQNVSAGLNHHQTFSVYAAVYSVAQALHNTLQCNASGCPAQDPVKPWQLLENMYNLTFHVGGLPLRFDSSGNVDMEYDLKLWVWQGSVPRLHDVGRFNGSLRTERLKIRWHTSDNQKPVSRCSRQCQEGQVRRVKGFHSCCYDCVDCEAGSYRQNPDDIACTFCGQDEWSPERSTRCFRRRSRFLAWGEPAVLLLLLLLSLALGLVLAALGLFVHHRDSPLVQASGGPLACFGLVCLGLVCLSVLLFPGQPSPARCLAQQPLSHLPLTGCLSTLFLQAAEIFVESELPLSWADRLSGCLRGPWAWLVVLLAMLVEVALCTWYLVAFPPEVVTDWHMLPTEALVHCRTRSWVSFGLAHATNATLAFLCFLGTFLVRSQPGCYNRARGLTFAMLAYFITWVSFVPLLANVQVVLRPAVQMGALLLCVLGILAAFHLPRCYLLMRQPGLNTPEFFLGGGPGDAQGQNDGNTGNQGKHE


Biological target: T1, human TAS1R2-K689Q/TAS1R3-WT
Experiment: Calcium mobilisation assay, TAS1R2 variant K689Q with TAS1R3-WT
Type: cell-based
Details: "-": no activation; for Max ΔF/F0: maximal signal amplitude; for EC50: "nd": not determined
From the text: The coding sequences for TAS1R2 and TAS1R3 were commercially synthesised, and the human codon was optimised for expression in human cells. The coding sequences of human TAS1R2 and TAS1R3 were subcloned and inserted into the mammalian expression vectors pcDNA6/myc-HisA and pcDNA4/myc-HisA (Invitrogen; Thermo Fisher Scientific; Illkirch, France) between the EcoRI and NotI restriction sites, generating the plasmids pcDNA6-TAS1R2 and pcDNA4-TAS1R3, respectively. To increase protein expression in mammalian cells, an upstream start codon was used, which was a sequence called MAX, corresponding to the QBI SP163 element also described in pcDNA4-HisMax (Invitrogen; Thermo Fisher Scientific; Illkirch, France). To measure the expression level of the receptor by immunohistochemistry, we used the FLAG sequence ([…]) in the C-terminal position, which encodes the FLAG tag epitope. SNP variants of TAS1R2 and TAS1R3 were constructed based on […], respectively, using site-directed mutagenesis (Genewiz; Leipzig, Germany).
The HEK293T cells were kindly provided by Jay P. Slack (Givaudan Flavors Corporation; Cincinnati, OH, USA). HEK293T cells stably transfected with Gα16gust44 [43, 67] were seeded in poly-D-lysine-coated clear-bottom black 96-well plates (0.35 × 10^5 cells/well) in high-glucose DMEM supplemented with 2 mM GlutaMAX, 10% dialysed foetal bovine serum with penicillin/streptomycin and G418 (400 μg/mL) at 37 °C and 6.3% CO2 in a humidified atmosphere as previously reported. […] As a negative control, HEK293T cells were mock-transfected with the empty expression vector. After a further 24 h of incubation, the HEK293T cells were washed with C1 buffer (130 mM NaCl, 5 mM KCl, 10 mM HEPES pH 7.4 and 2 mM CaCl2). The 96-well plates containing the cells were then stimulated with sweet-tasting compounds. […] Different concentration ranges were tested depending on the sweet compound injected. The Ca^2+ changes were expressed as fractional changes in fluorescent light intensity: ΔF/F = (F − F0)/F0, where F was the fluorescent light intensity at each point, and F0 was the value of emitted fluorescent light prior to stimulus application. To calculate dose–response relationships, the changes in fluorescence upon stimulus application were averaged, mock-subtracted and baseline-corrected. The dose–response data obtained were adjusted using a 4-parameter logistic equation. The half-maximal effective concentrations (EC50 values) and maximal signal amplitudes were calculated using SigmaPlot software (version 15.0) (Systat Software; San Jose, CA, USA).
For in vitro calcium mobilisation assay performed on hTAS1R2-SNPs, hTAS1R3-SNPs and mTAS1R3-I60T, 6 to 7 concentrations were tested for each sweet compound, plus buffer alone. All concentration–receptor combinations were measured in duplicate, and each experiment was repeated at least 4 times (8 wells/concentration). Results were expressed for each concentration as ΔF/F mean ± SEM and represented as dose–response curves.

R1 = Variant EC50/WT EC50 | Max ΔF/F0 | EC50 | Molecule
7.6 | 1.36 ± 0.01 | 132 ± 16.9 µM | C=C(C)[C@@H]1CC=C(/C=N/O)CC1 [Perillartine, perillartine]
4.5 | 0.36 ± 0.01 | 75.8 ± 2.3 µM | C=C1C[C@@]23CC[C@H]4[C@@](C)(CCC[C@@]4(C)C(=O)O[C@@H]4O[C@H](CO)[C@@H](O)[C@H](O[C@@H]5O[C@H](CO)[C@@H](O)[C@H](O)[C@H]5O)[C@H]4O[C@@H]4O[C@H](CO)[C@@H](O)[C@H](O)[C@H]4O)[C@@H]2CC[C@]1(O[C@@H]1O[C@H](CO)[C@@H](O)[C@H](O[C@@H]2O[C@H](CO)[C@@H](O)[C@H](O)[C@H]2O)[C@H]1O[C@@H]1O[C@H](CO)[C@@H](O)[C@H](O)[C@H]1O)C3 [Rebaudioside M, rebaudioside M]
3.4 | 0.08 ± 0.01 | 307 µM | OC[C@H]1O[C@H](O[C@]2(CCl)O[C@H](CCl)[C@@H](O)[C@@H]2O)[C@H](O)[C@@H](O)[C@H]1Cl [Sucralose]
5.7 | 0.64 ± 0.03 |  | brazzein (QDKCKKVYENYPVSKCQLANQCNYDCKLDKHARSGECFYDEKRNLQCICDYCEY; ends and bridges not checked; cysteine pairing not given here; UniProt P56552 1-54, looked up) [sweet-tasting protein obtained by recombinant production using the yeast Pichia pastoris]
4.4 | 0.87 ± 0.09 |  | thaumatin
 |  | 33.5 µM | thaumatin (protein, Eight disulfides, sweet-tasting plant protein, E957) ATFEIVNRCSYTVWAAASKGDAALDAGGRQLNSGESWTINVEPGTKGGKIWARTDCYFDDSGSGICKTGDCGGLLRCKRFGRPPTTLAEFSLNQYGKDYIDISNIKGFNVPMDFSPTTRGCRGVRCAADIVGQCPAKLKAPGGGCNDACTVFQTSEYCCTTGKCGPTEYSRFFKRLCPDAFSYVLDKPTTVTCPGSSNYRVTFCPTA

Further lines, the molecule ahead of its results:

Molecule | R1 = Variant EC50/WT EC50 | Max ΔF/F0 | EC50
CC1=CC(=O)NS(=O)(=O)O1 [Acesulfame K, acesulfame K] | 4.3 | 0.02 | 
O=S(=O)(O)NC1CCCCC1 [Cyclamate, cyclamate] |  |  | 5010 ± 220 µM
C[C@H](CC[C@@H](O[C@@H]1O[C@H](CO[C@@H]2O[C@H](CO)[C@@H](O)[C@H](O)[C@H]2O)[C@@H](O)[C@H](O)[C@H]1O[C@@H]1O[C@H](CO)[C@@H](O)[C@H](O)[C@H]1O)C(C)(C)O)[C@H]1CC[C@@]2(C)[C@@H]3CC=C4[C@@H](CC[C@H](O[C@@H]5O[C@H](CO[C@@H]6O[C@H](CO)[C@@H](O)[C@H](O)[C@H]6O)[C@@H](O)[C@H](O)[C@H]5O)C4(C)C)[C@]3(C)[C@H](O)C[C@]12C [Mogroside V, mogroside V] | 3.3 | 0.54 ± 0.01 | 57.9 ± 0.4 µM
COc1ccc(CCC(=O)c2c(O)cc(O[C@@H]3O[C@H](CO)[C@@H](O)[C@H](O)[C@H]3O[C@@H]3O[C@@H](C)[C@H](O)[C@@H](O)[C@H]3O)cc2O)cc1O [NHDC, neohesperidin dihydrochalcone] |  |  | > 1000 µM
COC(=O)[C@H](Cc1ccccc1)NC(=O)[C@H](CC(=O)O)NCCC(C)(C)C [Neotame] | 4.3 | 0.12 ± 0.01 | 3.58 ± 0.46 µM

From article PMC11945486, “TAS1R2/TAS1R3 Single-Nucleotide Polymorphisms Affect Sweet Taste Receptor Activation by Sweeteners: The SWEET Project” (Nutrients, 2025)
